# Reference: US8071760B2, “Boron-containing porphyrin compounds and their uses” (Board of Supervisors of Louisiana State University and …, priority 2005, dated 2011)
# “Also recorded” adds a separate entry of the source. Marks after values point to notes of the source that are not given here.
# Key:
# [1] = solubility in solvents and water; assay type: physicochemical
# Description: Compound 18 was converted to the water-soluble TBP Compound 19 with tert-butylammonium fluoride in THF, followed by cation exchange.
# [2] = system: human glioblastoma T98G cells; test: Concentration-dependent cellular uptake; assay type: cell-based; settings: for dependence of uptake on concentration: up to 200 μM
# Procedure: Human glioblastoma T98G cells and cervical carcinoma HEp2 cells were obtained from ATCC. Both cell lines were maintained in 50% α-MEM/advanced MEM, supplemented with 5% fetal bovine serum. Phosphate buffered saline (PBS), fetal bovine serum, and trypsin were purchased from Gibco; Cyquant reagent and Lysosensor were purchased from Molecular Probes, and Triton X-100 was purchased from Calbiochem. Microscopy was performed on a Zeiss Axiovert 200M inverted fluorescence microscope fitted with standard Texas Red and FITC filter sets (Chroma Technology Corp.). Images were acquired with a Zeiss Axiocam MRM CCD camera fitted to the microscope, and were pseudo-colored with Adobe Photoshop® CS version 8.0. […] All medium solutions were filter-sterilized ([…] pore size) prior to use. All data obtained in the FLUOstar plate reader was analyzed using Prism 3.0 graphing software.
# Human T98G cells were sub-cultured on 96-well plates at 10,000 cells/100 μL α-MEM/advanced medium per well, and were incubated for 48 h. […] A standard curve for different cell numbers was obtained by placing 100,000, 80,000, 60,000, 40,000, 20,000, 10,000, and 0 cells in the wells, followed by incubation for 3 h. A standard graph was prepared from the wells with known cell numbers. Unknown cell numbers from the experiments were determined by first adding 100 μL/well of 5 μM stock solution of Cyquant reagent in PBS, and then reading the plate on a FLUOstar plate reader using 480 nm excitation and 520 emission filters. The same procedure was followed for determining the concentration-dependent cellular uptake of porphyrin 20, but using 570 nm excitation and 650 nm emission filters.
# [3] = system: human glioblastoma T98G cells; test: Time-dependent cellular uptake; assay type: cell-based; settings: 10 μM, FIG. 12
# Procedure: (§1) Human glioblastoma T98G cells and cervical carcinoma HEp2 cells were obtained from ATCC. Both cell lines were maintained in 50% α-MEM/advanced MEM, supplemented with 5% fetal bovine serum. Phosphate buffered saline (PBS), fetal bovine serum, and trypsin were purchased from Gibco; Cyquant reagent and Lysosensor were purchased from Molecular Probes, and Triton X-100 was purchased from Calbiochem. Microscopy was performed on a Zeiss Axiovert 200M inverted fluorescence microscope fitted with standard Texas Red and FITC filter sets (Chroma Technology Corp.). Images were acquired with a Zeiss Axiocam MRM CCD camera fitted to the microscope, and were pseudo-colored with Adobe Photoshop® CS version 8.0. Compounds 19 and 20 were dissolved in DMSO (Sigma-Aldrich) prior to being diluted into cell medium so that the final DMSO concentration never exceeded 1%. All medium solutions were filter-sterilized ([…] pore size) prior to use. All data obtained in the FLUOstar plate reader was analyzed using Prism 3.0 graphing software.
# Human T98G cells were sub-cultured and incubated for 48 h as otherwise described above. A filter-sterilized, 10 μM stock solution of TBP 19 in 1% DMSO/medium was added, and the cells were incubated for 24, 16, 8, 4, 2, 1, 0.5 and 0 h. […] Known and unknown concentrations of TBP 19 were determined as described above for the concentration-dependent uptake. […]
# Human HEp2 cells = test: Intracellular localization (fluorescence microscopy, Lysosensor co-localization); assay type: cell-based; settings: 50 μM, 24 h incubation, fluorescence pattern and overlay with Lysosensor; listed as TBP 19
# Procedure: as §1
# Human HEp2 cells were sub-cultured on Lab-Tek II chamber cover slips with α-MEM/advanced medium for 48 h. TBP 5 was added to each chamber to reach a final concentration of 50 μM. […] New medium containing 50 mM HEPES pH 7.4 was added, and the cells were examined immediately by fluorescence microscopy. […]
# BALB/c mice = test: Animal toxicity (clinical signs, serum chemistry, histopathology); assay type: in vivo; settings: for AP / Albumin / BUN / Bilirubin / Globulin / Glucose / Total Prot. / ALT / AST: serum, blood 48 h after administration, group mean; for ALT / AST: in U/L (unit assumed)
# Procedure: Twelve groups of two BALB/c mice each, 4-6 weeks of age and weighing 12-24 g (mean=19 g), were used for toxicity studies. There were 8 female and 16 male mice. Mice in groups 1, 3, 5, 7, and 9 were administered TBP 19 once via i.p. injection, at increasing dosages: group 1 (20 mg/kg of a 2 mg/ml solution), group 3 (40 mg/kg of a 2 mg/ml solution), group 5 (80 mg/kg of a 4 mg/ml solution), group 7 (120 mg/kg of a 4 mg/ml solution), and group 9 (160 mg/kg of a 4 mg/ml solution). Mice in groups 2, 4, 6, 8, and 10 were administered porphyrin 20 once via i.p. injection at increasing dosages: group 2 (20 mg/kg of a 2 mg/ml solution), group 4 (40 mg/kg of a 2 mg/ml solution), group 6 (80 mg/kg of a 4 mg/ml solution), group 8 (120 mg/kg of a 4 mg/ml solution), and group 10 (160 mg/kg of a 4 mg/ml solution). Two groups of mice served as vehicle controls. Mice in group 11 received sterile 4% Cremophor EL (Fluka) in PBS and served as controls for mice receiving 20, 40, and 80 mg/kg compound; while mice in group 12 received 6% Cremophor EL and served as controls for mice receiving 120 and 160 mg/kg compound.
# For each compound, groups were dosed sequentially and each group was evaluated daily for signs of toxicity, including hunched posture, rough hair coat, and decreased responsiveness. Mice were anesthetized with CO2 48 h after compound administration, and blood was collected by cardiocentesis for clinical chemistry evaluation. Serum chemistry was analyzed, including glucose, aspartate aminotransferase (AST), alanine aminotransferase (ALT), alkaline phosphatase (AP), bilirubin, total protein (TP), albumin, globulin, and blood urea nitrogen (BUN). The mice were exsanguinated and necropsies were performed. Tissues, including lung, kidney, thymus, heart, Harderian gland, spleen, stomach, small intestine and colon were fixed in 10% neutral buffered formalin. The fixed tissues were processed and examined by a board-certified pathologist.
# [4] = T98G cells, 3 h exposure, FIG. 11
# [5] = BALB/c mice, 20 mg/kg single i.p. injection
# [6] = BALB/c mice, 40 mg/kg single i.p. injection
# [7] = BALB/c mice, 80 mg/kg single i.p. injection
# [8] = BALB/c mice, 120 mg/kg single i.p. injection
# [9] = BALB/c mice, 160 mg/kg single i.p. injection
substance,measurement,setting,value
"5,10,15,20-Tetra(4′-cobaltacarborane 4-hydroxyphenyl)porphyrin [Compound 13]",solubility in methanol,[1],soluble
"5,10,15,20-Tetra(4′-cobaltacarboranepyridyl)porphyrin [Compound 5]",solubility in polar organic solvents,"[1]; acetone, ethyl acetate, acetonitrile, DMF, and DMSO",highly soluble
same,solubility in methanol,[1],not
"5,10,15,20-Tetra[4-(nido-carboranyl)phenyl-tetrabenzoporphyrin [Compound 19]",solubility in polar organic solvents,"[1]; such as acetone, methanol and DMSO",highly soluble
same,solubility in water,[1]; water,slightly soluble
same,"concentration accumulated within cells, higher than porphyrin 20",[2]; [4],approximately 30%
same,dependence of uptake on concentration,[2]; [4],"increased with increasing concentration, in an almost linear fashion"
same,uptake in T98G cells in comparison with carboranylporphyrin 20,"[2]; in vitro, in words",significantly higher uptake
same,amount within T98G cells relative to Compound 20,[3]; after 24 h,approximately 3 times
same,time-dependent uptake compared with porphyrin 20,[3]; all times 0-24 h,taken up faster and to a greater extent
same,site of intracellular localization,Human HEp2 cells,localization in the cellular lysosomes
same,toxicity to BALB/c mice,"BALB/c mice; 160 mg/kg, single i.p. injection, 4 mg/mL, listed as TBP 19",non-toxicity; also recorded: non-toxic
same,signs of toxicity,"BALB/c mice; BALB/c mice, 20-160 mg/kg single i.p. injection, daily evaluation",No signs of toxicity
same,serum chemistry changes attributable to compound,"BALB/c mice; BALB/c mice, i.p., maximum 160 mg/kg",No serum chemistry changes were observed
same,"clinical, biochemical, or histopathological effects attributable to administration","BALB/c mice; BALB/c mice, single i.p. injection up to 160 mg/kg","No clinical, biochemical, or histopathological effects were observed"
same,"toxicity compared with other negatively charged carboranyl-containing porphyrins (BOPP, MnBOPP, BTPP, NiNTCP-H, ZnDPE, NiDPE)","BALB/c mice; mice, preliminary results",significantly less toxic
same,AP,BALB/c mice; [5],"189.5^a,c"
same,Albumin,BALB/c mice; [5],2.85 g/dL
same,BUN,BALB/c mice; [5],28 mg/dL
same,Bilirubin,BALB/c mice; [5],0.15 mg/dL
same,Globulin,BALB/c mice; [5],1.8^a
same,Glucose,BALB/c mice; [5],153.5^a
same,Total Prot.,BALB/c mice; [5],4.65 g/dL
same,ALT,BALB/c mice; [5],151.5
same,AST,BALB/c mice; [5],177.5
same,AP,BALB/c mice; [6],"201.0^b,c"
same,Albumin,BALB/c mice; [6],2.8 g/dL
same,BUN,BALB/c mice; [6],27 mg/dL
same,Bilirubin,BALB/c mice; [6],0.2 mg/dL
same,Globulin,BALB/c mice; [6],1.9^a
same,Glucose,BALB/c mice; [6],219.5^c
same,Total Prot.,BALB/c mice; [6],4.7 g/dL
same,ALT,BALB/c mice; [6],96.5
same,AST,BALB/c mice; [6],455.5
same,AP,BALB/c mice; [7],138.0^a
same,Albumin,BALB/c mice; [7],2.75 g/dL
same,BUN,BALB/c mice; [7],25.5 mg/dL
same,Bilirubin,BALB/c mice; [7],0.2 mg/dL
same,Globulin,BALB/c mice; [7],2.35^b
same,Glucose,BALB/c mice; [7],229.5^c
same,Total Prot.,BALB/c mice; [7],5.1 g/dL
same,ALT,BALB/c mice; [7],120.0
same,AST,BALB/c mice; [7],454.5
same,AP,BALB/c mice; [8],161.0^a
same,Albumin,BALB/c mice; [8],2.75^a
same,BUN,BALB/c mice; [8],"15.5^a,b"
same,Bilirubin,BALB/c mice; [8],0.2 mg/dL
same,Globulin,BALB/c mice; [8],2.35^a
same,Total Prot.,BALB/c mice; [8],5.1^a
same,ALT,BALB/c mice; [8],29.0
same,AST,BALB/c mice; [8],73.0
same,Glucose,"BALB/c mice; BALB/c mice, 120 mg/kg single i.p. injection, in mg/dL (unit assumed)",224.5
same,AP,BALB/c mice; [9],223.5^b
same,BUN,BALB/c mice; [9],"22.5^b,c"
same,Bilirubin,BALB/c mice; [9],0.25 mg/dL
same,Globulin,BALB/c mice; [9],1.95^b
same,Total Prot.,BALB/c mice; [9],4.35^b
same,Albumin,"BALB/c mice; BALB/c mice, 160 mg/kg single i.p. injection, 160 mg/kg",lower than for other mice
same,ALT,BALB/c mice; [9],206.0
same,AST,BALB/c mice; [9],498.0
same,Glucose,"BALB/c mice; BALB/c mice, 160 mg/kg single i.p. injection, in mg/dL (unit assumed)",172.0
same,Albumin,"BALB/c mice; BALB/c mice, 160 mg/kg single i.p. injection, listed as TBP 5, 160 mg/kg",2.4^b
"5,10,15,20-Tetra[4-(o-carboranyl)phenyl-tetrabenzoporphyrin [Compound 18]",solubility in organic solvents,[1]; such as dichloromethane and acetone,soluble
"tetra(nido-carboranylphenyl)porphyrin [Compound 20, reference compound]",dependence of uptake on concentration,[2]; [4],"increased with increasing concentration, in an almost linear fashion"
